Measurements reported in patent US20040127361A1 (priority 2003, published 2004).

Columns and labels:
Assay type in all cases: in vivo
[1] = system: Puccinia recondita; assay: Test B: wheat leaf rust, preventive spray on wheat seedlings; conditions: wheat seedlings sprayed to run-off, inoculated following day with spore suspension, saturated atmosphere 20° C. 24 hours then growth chamber 6 days; test concentration not stated
Source text: (§1) General protocol for preparing test suspensions: Test compounds are first dissolved in acetone in an amount equal to 3% of the final volume and then suspended at the desired concentration (in ppm) in acetone and purified water (50/50 mix) containing 250 ppm of the surfactant Trem® 014 (polyhydric alcohol esters). The resulting test suspensions are then used in the following tests. Spraying a 200 ppm test suspension to the point of run-off on the test plants is the equivalent of a rate of 500 g/ha
The test suspension was sprayed to the point of run-off on wheat seedlings. The following day the seedlings were inoculated with a spore suspension of Puccinia recondita (the causal agent of wheat leaf rust) and incubated in a saturated atmosphere at 20° C. for 24 hours, and then moved to a growth chamber at 20° C. for 6 days, after which disease ratings were made.
(§2) Results for Tests A-D are given in Table A. In the table, a rating of 100 indicates 100% disease control and a rating of 0 indicates no disease control (relative to the controls). A dash (-) indicates no test results. ND indicates disease control not determined due to phytotoxicity.

[2] = system: Phytophthora infestans; conditions: tomato seedlings sprayed to run-off, inoculated following day with spore suspension, saturated atmosphere 20° C. 24 hours then growth chamber 5 days; test concentration not stated
[3] = system: Erysiphe graminis f sp. tritici; assay: Test A: wheat powdery mildew, preventive spray on wheat seedlings; conditions: wheat seedlings sprayed to run-off, inoculated following day with spore dust, 20° C. for 7 days; test concentration not stated
Source text: as §1
The test suspension was sprayed to the point of run-off on wheat seedlings. The following day the seedlings were inoculated with a spore dust of Erysiphe graminis f sp. tritici, (the causal agent of wheat powdery mildew) and incubated in a growth chamber at 20° C. for 7 days, after which disease ratings were made.
as §2

SMILES	Test B disease control rating (100 = 100% disease control, 0 = no disease control relative to the controls) [1] [%]	Test C disease control rating (100 = 100% disease control, 0 = no disease control relative to the controls) [2] [%]	Test A disease control rating (100 = 100% disease control, 0 = no disease control relative to the controls) [3] [%]
Cc1cnc2c(c1)CCCC2NC(=O)c1ccccc1Cl (stereo not drawn) [Compound A5]	55	46	0
Cc1cnc2c(c1)CCCC2NC(=O)c1ccccc1C (stereo not drawn) [Compound A7]	45	75	0
Cc1cnc2c(c1)CCCC2NC(=O)c1c(F)cccc1F (stereo not drawn) [Compound A4]	0	90	0
Cc1cnc2c(c1)CCCC2NC(=O)c1c(Cl)cc(Cl)cc1Cl (stereo not drawn) [Compound A6]	9	82	0
Cc1cnc2c(c1)CCCC2NC(=O)c1c(F)ccc(F)c1F (stereo not drawn) [Compound A8, 2,3,6-trifluoro-N-(5,6,7,8-tetrahydro-3-methyl-8-quinolinyl)benzamide]	55	100	0
CSc1ncccc1C(=O)NC1CCCc2cc(C)cnc21 (stereo not drawn) [Compound B3]	23	56	0
Cc1cnc2c(c1)CCCC2NC(=O)c1cccnc1O (stereo not drawn) [Compound B8]	19	47	0
Cc1cnc2c(c1)CCCC2NC(=O)c1ccc(Cl)nc1 (stereo not drawn) [Compound B4]	9	32	0
Cc1cnc2c(c1)CCCC2NC(=O)c1ccc(Br)cc1 (stereo not drawn) [Compound A2]	18	5	0
Cc1cnc2c(c1)CCCC2NC(=O)c1c(Cl)cccc1Cl (stereo not drawn) [Compound A1, 2,6-dichloro-N-(5,6,7,8-tetrahydro-3-methyl-8-quinolinyl)benzamide]	84	100	0
Cc1cnc2c(c1)CCCC2NC(=O)c1c(F)cccc1Cl (stereo not drawn) [Compound A9]	38	97	0
Cc1cnc2c(c1)CCCC2NC(=O)c1cccnc1Nc1cccc(C(F)(F)F)c1 (stereo not drawn) [Compound B1]	19	16	0
Cc1cnc2c(c1)CCCC2NC(=O)c1ccnc(Cl)c1 (stereo not drawn) [Compound C1]	55	84	0
COc1cc(C(=O)NC2CCCc3cc(C)cnc32)cc(Cl)n1 (stereo not drawn) [Compound C2, 2-chloro-6-methoxy-N-(5,6,7,8-tetrahydro-3-methyl-8-quinolinyl)4-pyridinecarboxamide]	28	18	95
Cc1cnc2c(c1)CCCC2NC(=O)c1ccccc1C(F)(F)F (stereo not drawn) [Compound A3]	41	47	0
